According to paper PMC7472781, “Inherited and Acquired Determinants of Hepatic CYP3A Activity in Humans” (Frontiers in Genetics, 2020):
Where “and” joins values, the source holds several entries; their conditions need not be identical. Equal values may be shown once. Marks after values point to notes of the source that are not given here.

How the values were obtained:
CYP3A [1] = assay: clinical; conditions: for AUC: 0.2 mg midazolam i.v., zero to infinity; for AUC / Ratio 1-OH-midazolam/midazolam (AUC): value (range)
Protocol: Midazolam was administered as a 2 min intravenous infusion with a total dose of 0.2 mg. The phenotyping test with midazolam was performed on three different occasions with a time interval of at least 1 week and maximally 3 months.
Pharmacokinetic parameters were estimated by non-compartmental analyses using the WinNonlin software (Pharsight Corporation, Mountain View, United States). The AUC from zero to infinity (AUC), was calculated by the linear/log trapezoidal rule and using the terminal elimination rate constant (lambda z). […] Total plasma clearance (Cl) after administration of midazolam was calculated as the ratio dose over AUC. Time (tmax) and amount of maximum plasma concentration (Cmax) were given as measured and the terminal half-life (t1/2) was calculated as t1/2 = ln(2)/lambda z.

CYP3A [2] = assay: Within- and between-subject variance and genetic component (Kalow) of the 4 CYP3A biomarkers, three occasions; conditions: for Genetic component: from intra- and inter-individual variation, independent of twin status, AUC, plasma concentration or 24-h urine Ae
Protocol: (§1) Predefined primary endpoint was midazolam AUC. All concentrations and pharmacokinetic parameters were determined on three independent occasions to compare intra- versus interindividual variation. […] In structural equation modeling of heritability and in the other multifactorial analyses the individual means from the measurements or parameters obtained on the three occasions were used. Using structural equation analysis, variation was separated into additive genetic (A), common environmental (C), and unique environmental (E) effects. The heritability is the proportion of the variance resulting from the genetic effect (A). In order to investigate the genetic, common environmental, and unique environmental effects of the different traits taken into account, the possible correlation between traits were fitted in multivariate ACE, AE, and CE biometrical models using the mcglm package for multivariate regression analysis in R. As an exploratory analysis, we computed the correlation between MZ and DZ twins based on an unstructured (equal mean and variance for MZ and DZ twins) model. In all models, the mean structure for each trait was specified as a linear function of the covariates age and sex.

CYP3A [3] = assay: Twin correlations and structural equation modeling (ACE, AE, CE) of heritability of the CYP3A biomarkers; conditions: for rdz (correlation between DZ twins) / rmz (correlation between MZ twins): unstructured model
Protocol: as §1

CYP3A [4] = assay: Multifactorial analysis of genetic and environmental effects on the CYP3A probe drugs and biomarkers; conditions: in vivo
Protocol: DNA was isolated from whole venous blood by automated solid phase extraction with the EZ1^TM DNA Blood 350 μl Kit using the Bio-robot EZ1^TM (both Qiagen, Hilden, Germany). The CYP3A4^∗1b and ^∗22 alleles as well as the CYP3A5^∗1/^∗3 polymorphism were genotyped by DNA sequencing using fluorescence-labeled dideoxynucleotides and detection via Gene Mapper v3.7 Software® (Applied Biosystems®, Foster City, United States). Zygosity was assessed by analyzing variants in 23 polymorphic genes. Monozygosity was concluded when there were no differences regarding the polymorphisms in both siblings of one twin pair.
as §1

CYP3A [5] = assay: Endogenous CYP3A biomarker in plasma: cholesterol and 4ß-OH-cholesterol (GC-MS, baseline blood samples); conditions: for Plasma concentration / Ratio (cholesterol): value (range); for Ratio (cholesterol): plasma
Protocol: Briefly, 10 μl of plasma were spiked with 10 μg of cholesterol-d5 as internal standard. After saponification with 0.5 ml of 1 M NaOH in 90% ethanol at 70°C for 1 h, 250 μl of water were added and the samples extracted with 2 ml of n-hexane. An aliquot of 50 μl of the extract was evaporated to dryness and derivatized with 20 μl of N,O-bis(trimethylsilyl)trifluoroacetamide (BSTFA) for 30 min at room temperature.
Briefly, 1 ml of plasma was spiked with 10 μg of BHT and 50 ng of the internal standard 4ß-hydroxycholesterol-d4 and saponified with 2.5 ml of 1 M NaOH in 90% ethanol at 70°C for 1 h under argon and then extracted with 1 ml of water and 5 ml of chloroform. The chloroform phase was evaporated to dryness in a stream of nitrogen and the residue dissolved in 1 ml of toluene. […] The cartridges were washed with 1 ml of hexane and 10 ml of 2-propanol in hexane (0.5% v/v) and then eluted with 2 ml of 2-propanol in hexane (30% v/v). The eluate was evaporated to dryness in a stream of nitrogen and derivatized with 20 μl of BSTFA for 30 min at room temperature. GC was performed on a J&W DB-5MS column (25 m, 0.2 mm i.d., 0.33 μm film thickness; Agilent) in the splitless mode. For the analysis of cholesterol, the GC oven program started at 150°C and was held for 1 min. […] For the analysis of 4ß-hydroxycholesterol the GC oven program startet at 150°C and was held for 1 min. Temperature was increased with 10°C/min to 250°C, then with 30°C/min to 300°C.

[6] = other studies; ref Diczfalusy et al., 2008; cited from earlier work
CYP3A [7] = assay: Endogenous CYP3A biomarker in 24-h urine: cortisol and 6ß-OH-cortisol (LC-MS-MS); conditions: value (range); for Amount in urine: 24 h urine; for Ratio (cortisol): urine
Protocol: Cholesterol and 4ß-OH cholesterol were measured in the baseline blood samples before drug administration. All samples were centrifuged for 10 min (4000 rpm) at 4°C and the plasma was stored at −20°C.
Calibration samples for cholesterol were prepared in isooctane with 10% 2-propanol in the concentration range from 1 to 30 μg. Calibration samples for 4ß-hydroxycholesterol were prepared in isooctane with 0.8% 2-propanol from 5 to 100 ng. […] Calibration samples were worked up as the samples, and analyzed together with the unknown samples. […] The concentration in unknown samples was obtained from the regression line.

OCc1ncc2n1-c1ccc(Cl)cc1C(c1ccccc1F)=NC2 [1-OH-midazolam, 1′-hydroxymidazolam]
AUC (CYP3A [1]; DZ twins): 73.31 (30.95 – 322.8) μg * min/L
Ratio 1-OH-midazolam/midazolam (AUC) (CYP3A [1]; DZ twins): 0.17 (0.07 – 0.54)
AUC (CYP3A [1]; MZ twins): 66.88 (33.75 – 195.6) μg * min/L
Ratio 1-OH-midazolam/midazolam (AUC) (CYP3A [1]; MZ twins): 0.15 (0.09 – 0.61)
AUC, inter-individual range (CYP3A [1]; all subjects): 30.95 – 322.8 μg∗min/L
Inter-individual variation in AUC (CYP3A [1]; all subjects): 10.4 fold
AUC, mean (CYP3A [1]; all subjects, three occasions): 86.2 µg·min/L
Intra-individual (between-days) mean coefficient of variation (CYP3A [1]; three occasions): 12.3%
Genetic component (CYP3A [2]): 0.93 and 0.931
Variation that may be due to genetic factors (from genetic component) (CYP3A [2]; human, in vivo): up to 93%
C^2 (common environmental effect) (CYP3A [3]; ACE model): 0.21 (0.23)
H^2 (heritability) (CYP3A [3]; ACE model): 0.73 (0.23)*
Variation due to additive genetic (inherited) effects (CYP3A [3]; ACE model): 73%
H^2 (heritability) (CYP3A [3]; AE model): 0.94 (0.01)*
C^2 (common environmental effect) (CYP3A [3]; CE model): 0.78 (0.04)*
rdz (correlation between DZ twins) (CYP3A [3]): 0.59 (0.11)*
rmz (correlation between MZ twins) (CYP3A [3]): 0.94 (0.01)*
Coefficient, CYP3A4*22 (CYP3A [4]): −12.53
Coefficient, CYP3A5*3 (CYP3A [4]): 29.27
Coefficient, age (CYP3A [4]): −1.78
Coefficient, lean body weight (CYP3A [4]): −1.74.
Coefficient, sex (CYP3A [4]): 11.79
Coefficient, smoking status (CYP3A [4]): 1.46
Coefficient, oral contraceptives (CYP3A [4]): −31.33

CC(C)CCC[C@@H](C)[C@H]1CC[C@H]2[C@@H]3CC=C4[C@@H](O)[C@@H](O)CC[C@]4(C)[C@H]3CC[C@]12C [4ß-OH-cholesterol, 4ß-hydroxycholesterol]
Plasma concentration (CYP3A [5]; DZ twins): 23.07 (15.12 – 46.77) ng/ml
Plasma concentration (CYP3A [5]; MZ twins): 24.56 (12.59 – 62.96) ng/ml
Plasma concentration, mean (CYP3A [5]; all subjects, three occasions): 0.0259 µg/mL
Median plasma level (CYP3A [5]; heterozygous carriers of active CYP3A5*1): 30.69 ng/mL
Median plasma level (CYP3A [5]; homozygous carriers of CYP3A5*3): 23.01 ng/mL
Genetic component (CYP3A [2]): 0.812
Variance between subjects (Varb) of plasma concentration (CYP3A [2]; human, in vivo): 86.5 ng/mL
Variance within subjects (Varw) of plasma concentration (CYP3A [2]; three occasions): 14.3 ng/mL
C^2 (common environmental effect) (CYP3A [3]; ACE model): 0.22 (0.26)
H^2 (heritability) (CYP3A [3]; ACE model): 0.56 (0.26)*
Variation due to additive genetic (inherited) effects (CYP3A [3]; ACE model): 56%
H^2 (heritability) (CYP3A [3]; AE model): 0.79 (0.04)*
C^2 (common environmental effect) (CYP3A [3]; CE model): 0.74 (0.04)*
rdz (correlation between DZ twins) (CYP3A [3]): 0.53 (0.12)*
rmz (correlation between MZ twins) (CYP3A [3]): 0.79 (0.04)*
Coefficient, CYP3A4*22 (CYP3A [4]; human): −8.21
Coefficient, CYP3A5*3 (CYP3A [4]; human): −6.30
Coefficient, age (CYP3A [4]; human): 0.16
Coefficient, sex (CYP3A [4]; human): −3.32
Coefficient, lean body weight (CYP3A [4]; human, 0.2 mg): −0.20
Coefficient, smoking status (CYP3A [4]; human, 0.2 mg): 3.28
Coefficient, oral contraceptives (CYP3A [4]; human, 0.2 mg): −2.57
half-life [6]: ≥ 17 days

CC(C)CCC[C@@H](C)[C@H]1CC[C@H]2[C@@H]3CC=C4C[C@@H](O)CC[C@]4(C)[C@H]3CC[C@]12C [Cholesterol, cholesterol]
Ratio (cholesterol) (CYP3A [5]; DZ twins): 0.17 (0.12 – 0.25)
Plasma concentration (CYP3A [5]; DZ twins): 1.38 (0.94 – 2.12) mg/ml
Ratio (cholesterol) (CYP3A [5]; MZ twins): 0.17 (0.01 – 0.35)
Plasma concentration (CYP3A [5]; MZ twins): 1.39 (0.86 – 1.99) mg/ml

C[C@]12CCC(=O)C=C1CC[C@@H]1[C@@H]2[C@@H](O)C[C@@]2(C)[C@H]1CC[C@]2(O)C(=O)CO [Cortisol, cortisol]
Amount in urine (CYP3A [7]; DZ twins): 32.14 (11.10 – 90.00) μg
Ratio (cortisol) (CYP3A [7]; DZ twins): 6.75 (3.38 – 18.22)
Amount in urine (CYP3A [7]; MZ twins): 35.85 (10.05 – 142.80) μg
Ratio (cortisol) (CYP3A [7]; MZ twins): 6.29 (3.09 – 14.65)
